US20250256005A1, “FLOWABLE PASTE WITH ELLAGIC ACID-NICKEL COMPLEX AND USES THEREOF FOR ACTIVATING COAGULATION” (Ethicon, Inc., priority 2024, published 2025)

System: citrated whole blood (intrinsic pathway of coagulation)
Test: Whole Blood (WB) gelation test
Assay type: biochemical
Settings: ellagic acid without Nickel or any other metal
Text: The aim was to assess how quickly the activators clot fresh whole blood.
These clotting time assays evaluate the ability of a material to active the intrinsic pathway to form a fibrin clot in whole blood after recalcification of citrated blood. Fresh citrated blood is used to preserve clotting factors.
WB Gelation Test: The WB gelation test uses a larger volume of blood compared to a small volume ACT tube to accommodate biomaterials, e.g., gelatins, collagen, thus allowing the WB gelation test to assess interactions between activators and biomaterials. […] To address this limitation, the WB Gelation Test was developed with a heated enclosure and larger tubes to accommodate larger volumes of blood and greater amounts of activators. Setup includes a plexiglass enclosure with a heating unit to perform the testing at 37° C. A temperature sensor in the enclosure maintained the temperature at 37° C. ±1° C. The enclosure contains an orbital rotator to gently mix the blood to with the other materials being tested while keeping it warm. The calcium saline and tube rocker are also in the enclosure. The enclosure has a front hinge to allow access from the front of the unit.
In exemplary procedures, citrated whole blood (4 ml) was added to a 15 ml conical tube with activator/biomaterial and mixed, then calcium saline solution (2 ml) was added to the tube and the timer is started. […]

## O=c1oc2c(O)c(O)cc3c(=O)oc4c(O)c(O)cc1c4c23 [Ellagic acid, ellagic acid]
  time over which no clotting was observed: over 1200 minutes
